{"source": "patent US11141475B2", "about": "“Inactivating pathogens and producing highly immunogenic inactivated vaccines using a dual oxidation process” (priority 2016, dated 2021)", "key": {"[1]": {"tested_on": "DENV4 envelope structural protein", "assay": "DENV-specific sandwich ELISA on treated DENV4 (antigenicity)", "type": "binding, dengue virus serotype 4", "conditions": "for DENV4 antigenicity (retained neutralizing epitopes, ELISA): treated 20 hours at room temperature (FIG. 19B); for DENV4 antigenicity in the dual-oxidation system (ELISA): H2O2 0.01%, CuCl2 1 μM, each compound 10 μM, 20 hrs post-inactivation"}, "DENV2": {"tested_on": "DENV2", "assay": "DENV2 inactivation kinetics at increasing total viral protein (PFU assay)", "type": "cell-based, dengue virus 2", "conditions": "3% H2O2, or 0.01% H2O2 and 1 μM CuCl2, room temperature"}, "C. coli [2]": {"tested_on": "C. coli", "assay": "Campylobacter morphology after inactivation (Gram safranin stain)", "parameters": "species or system Campylobacter coli", "conditions": "3% H2O2 for 5 hours at room temperature, or dual oxidation"}, "[3]": {"tested_on": "CHIKV E1 and E2 structural proteins", "assay": "CHIKV-specific sandwich ELISA with two neutralizing monoclonal antibodies (antigenicity)", "type": "binding, Chikungunya virus", "conditions": "for CHIKV antigenicity (retained neutralizing epitopes, ELISA): treated 20 hours at room temperature (FIG. 19A)"}, "[4]": {"tested_on": "YFV envelope structural protein"}, "[5]": {"tested_on": "DENV3 envelope structural protein", "assay": "DENV-specific sandwich ELISA on treated DENV3 (antigenicity)", "type": "binding, dengue virus 3", "conditions": "H2O2 0.01%, range of CuCl2 and FeCl3 concentrations"}, "DENV4": {"tested_on": "DENV4", "type": "cell-based, dengue virus serotype 4"}, "C. coli [6]": {"tested_on": "C. coli", "assay": "Campylobacter coli inactivation kinetics (viable bacteria, CFU/mL)", "type": "cell-based", "conditions": "added to H2O2 0.01%, CuCl2 2 μM; MZ 20 μM"}, "smallpox": {"tested_on": "smallpox", "conditions": "in vivo; cited from earlier work"}, "Shigella dysenteriae": {"tested_on": "Shigella dysenteriae", "assay": "Shigella dysenteriae inactivation (CFU/mL)", "type": "cell-based", "conditions": "added to H2O2 0.10%, CuCl2 10 μM; MZ 100 μM"}, "Listeria monocytogenes": {"tested_on": "Listeria monocytogenes", "assay": "Listeria monocytogenes inactivation (CFU/mL)", "type": "cell-based", "conditions": "added to H2O2 0.10%, CuCl2 10 μM; MZ 100 μM"}, "vaccinia virus": {"tested_on": "vaccinia virus", "type": "cell-based", "conditions": "added to H2O2 0.002%, CuCl2 1 μM; MZ 10 μM; PBS pH 7.5"}, "CHIKV": {"tested_on": "CHIKV", "type": "cell-based, Chikungunya virus"}, "[7]": {"conditions": "human, in vivo, 152 mg/kg; cited from earlier work"}}}
{"smiles": "OO", "note": "[3% H2O2, hydrogen peroxide]", "values": [{"measurement": "DENV4 antigenicity (retained neutralizing epitopes, ELISA)", "setting": "[1]", "result": "loss of neutralizing epitopes"}, {"measurement": "dependence of virus inactivation kinetics on total viral protein concentration", "setting": "DENV2", "result": "protein concentration-independent"}, {"measurement": "bacterial morphology after inactivation", "setting": "C. coli [2]", "result": "substantially damaged with clear changes in morphology"}, {"measurement": "antigenicity, in vitro potency testing using envelope-specific MAbs", "setting": "[3]; 3% H2O2 under standard conditions (7 hours, room temperature)", "result": "nearly complete loss of antigenicity"}, {"measurement": "CHIKV antigenicity (retained neutralizing epitopes, ELISA)", "setting": "[3]", "result": "loss of neutralizing epitopes"}, {"measurement": "YFV antigenicity (neutralizing epitopes)", "setting": "[4]", "result": "severe damage to neutralizing epitopes"}]}
{"smiles": "[Cl][Fe]([Cl])[Cl]", "note": "[FeCl3]", "values": [{"measurement": "DENV3 antigenicity with combinations of CuCl2 and FeCl3 (ELISA)", "setting": "[5]", "result": "enhanced antigenicity"}]}
{"smiles": "CCCN1C(=O)C(=NNC(N)=S)c2ccccc21", "note": "[N-propylisatin β-thiosemicarbazone]", "values": [{"measurement": "DENV4 inactivation in the dual-oxidation system (plaque assay)", "setting": "DENV4", "result": "enhanced rates of inactivation"}, {"measurement": "DENV4 antigenicity in the dual-oxidation system (ELISA)", "setting": "[1]", "result": "superior antigenicity"}]}
{"smiles": "NC(=S)NN=C1C(=O)Nc2ccccc21", "note": "[isatin β-thiosemicarbazone]", "values": [{"measurement": "DENV4 inactivation in the dual-oxidation system (plaque assay)", "setting": "DENV4", "result": "enhanced rates of inactivation"}, {"measurement": "DENV4 antigenicity in the dual-oxidation system (ELISA)", "setting": "[1]", "result": "superior antigenicity"}]}
{"smiles": "O=C1Nc2ccccc2C1=O", "note": "[isatin]", "values": [{"measurement": "DENV4 inactivation in the dual-oxidation system (plaque assay)", "setting": "DENV4", "result": "do not appear to increase the rate of inactivation"}, {"measurement": "DENV4 antigenicity in the dual-oxidation system (ELISA)", "setting": "[1]", "result": "protection of protein antigens from oxidative damage"}]}
{"smiles": "CN1C(=O)/C(=N\\NC(N)=S)c2ccccc21", "note": "[methisazone, N-methylisatin β-thiosemicarbazone]", "values": [{"measurement": "DENV4 inactivation in the absence of copper", "setting": "DENV4", "result": "minimal impact"}, {"measurement": "increase of the rate of inactivation vs dual oxidation alone, DENV4", "setting": "DENV4", "result": "10- to 20 fold"}, {"measurement": "rate of dual-oxidation-based inactivation, DENV4", "setting": "DENV4", "result": "substantially increase the rate"}, {"measurement": "DENV4 antigenicity (retained neutralizing epitopes, ELISA)", "setting": "[1]", "result": "maintained or significantly improved antigenicity"}, {"measurement": "inactivation rate of Campylobacter coli", "setting": "C. coli [6]", "result": "substantially enhanced inactivation rates"}, {"measurement": "close contacts who developed mild smallpox", "setting": "smallpox", "result": 0.27, "unit": "%"}, {"measurement": "close contacts who developed mild smallpox (cases/contacts)", "setting": "smallpox", "result": "3/1101"}, {"measurement": "deaths among close contacts", "setting": "smallpox", "result": "no deaths"}, {"measurement": "non-vaccinated subjects who contracted smallpox", "setting": "smallpox", "result": 2, "unit": "%"}, {"measurement": "non-vaccinated subjects who contracted smallpox (cases/subjects)", "setting": "smallpox", "result": "2/102"}, {"measurement": "inactivation rate of Shigella dysenteriae", "setting": "Shigella dysenteriae", "result": "substantially enhanced inactivation rates"}, {"measurement": "inactivation rate of Listeria monocytogenes", "setting": "Listeria monocytogenes", "result": "substantially enhanced inactivation rates"}, {"measurement": "rate of dual-oxidation-based inactivation, vaccinia virus", "setting": "vaccinia virus", "result": "substantially increase the rate"}, {"measurement": "CHIKV inactivation in the absence of copper", "setting": "CHIKV", "result": "minimal impact"}, {"measurement": "CHIKV inactivation rates with increasing methisazone relative to the transition metal", "setting": "CHIKV", "result": "concomitant improvements"}, {"measurement": "increase of the rate of inactivation vs dual oxidation alone, CHIKV", "setting": "CHIKV", "result": "10- to 20 fold"}, {"measurement": "rate of dual-oxidation-based inactivation, CHIKV", "setting": "CHIKV", "result": "substantially increase the rate"}, {"measurement": "serious adverse events", "setting": "[7]", "result": "lack of serious adverse events"}, {"measurement": "CHIKV retained antigenicity with increasing methisazone relative to the transition metal", "setting": "[3]; H2O2 0.02%, CuCl2 1 μM, ELISA at 20 hrs", "result": "concomitant improvements"}, {"measurement": "CHIKV antigenicity (retained neutralizing epitopes, ELISA)", "setting": "[3]", "result": "maintained or significantly improved antigenicity"}]}
{"smiles": "NNC(N)=O", "note": "[semicarbazide]", "values": [{"measurement": "DENV4 inactivation in the dual-oxidation system (plaque assay)", "setting": "DENV4", "result": "do not appear to increase the rate of inactivation"}, {"measurement": "DENV4 antigenicity in the dual-oxidation system (ELISA)", "setting": "[1]", "result": "protection of protein antigens from oxidative damage"}]}
{"smiles": "NNC(N)=S", "note": "[thiosemicarbazide]", "values": [{"measurement": "DENV4 inactivation in the dual-oxidation system (plaque assay)", "setting": "DENV4", "result": "enhancement of inactivation"}, {"measurement": "DENV4 antigenicity in the dual-oxidation system (ELISA)", "setting": "[1]", "result": "superior antigenicity"}]}
